Experimental data taken from PMC9445081, “Structural basis for recognition of N-formyl peptides as pathogen-associated molecular patterns” (Nature Communications, 2022).
Residue numbers refer to the chain shown, from its start. “And” between values parts separate entries of the source, which are not always exact repeats. Equal entries are not always repeated. Where two headings read alike, the source gives them in different places. Where a SMILES comes first, the peptide text is derived from it. Where no end group is shown, it is not given here. The star is where a group is joined. For = O=C*

How the values were obtained:
[1] = target: T1, FPR1 R205A (Homo sapiens, UniProt P21462, R205A); assay: cAMP inhibition assay, FPR1 R205A; type: cell-based; parameters: key to cAMP response, source data of Fig. 5c: % of maximal cAMP level for each construct; conditions: for cAMP response, source data of Fig. 5c: FPR1 R205A, single replicate readings
T1 construct: expressed in transfected cells; host or cells: HeLa cells, transient, pcDNA3.1(+)
T1 sequence (P21462 1-350 R205A): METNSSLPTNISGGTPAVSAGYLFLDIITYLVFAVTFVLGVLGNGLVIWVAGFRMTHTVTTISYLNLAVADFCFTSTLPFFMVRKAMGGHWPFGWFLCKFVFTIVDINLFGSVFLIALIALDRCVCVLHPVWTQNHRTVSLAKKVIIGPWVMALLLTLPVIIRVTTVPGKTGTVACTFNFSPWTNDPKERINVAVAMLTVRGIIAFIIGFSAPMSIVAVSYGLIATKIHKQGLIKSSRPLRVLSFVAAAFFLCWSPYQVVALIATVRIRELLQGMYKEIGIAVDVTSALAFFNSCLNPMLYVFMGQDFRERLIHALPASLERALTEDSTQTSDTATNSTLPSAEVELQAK
From the text: (§1) FPR1 cDNA in the pcDNA3.1(+) vector (Invitrogen) was used as a template for gene manipulation. The mutations of FPR1 were introduced in the receptor through overlap extension PCR with elaborately designed primers (GENEWIZ, Suzhou, China). The sequences of the primers were listed in Supplementary Table 2. Two fragments of FPR1 (separated at mutated positions) were assembled into pre-cut pcDNA3.1(+) vectors with the ClonExpress Ultra One Step Cloning Kit (Vazyme Biotech, C115). Plasmids with FPR1 mutations were confirmed by DNA sequencing (GENEWIZ).
(§2) For functional studies, FPR1 and its mutants were expressed in HeLa cells as above. The cells were resuspended in HBSS buffer plus 5 mM HEPES, 0.1% BSA (w/v) and 0.5 mM 3-isobutyl-1-methylxanthine and seeded into 384-well plates. […] AG-14 was synthesized by Sungening Biotechnology (Shenzhen, China). Different concentrations of the ligands were prepared plus a fixed dose of forskolin with the buffer above. […] Intracellular cAMP levels were measured with the LANCE Ultra cAMP kit (PerkinElmer, TRF0263) following the manufacturer’s instructions. […] Intracellular cAMP levels were calculated according to the TR-FRET signals of the samples and cAMP standards.
(§3) The data were analyzed with Prism 6.0 (GraphPad, San Diego, CA). For dose-response analysis, the curves were plotted with the log[agonist] vs. response equation (three parameters) in the software. Data points were presented as the percentages (mean ± SEM) of the maximal cAMP level for each construct, from at least three independent experiments, as indicated in figure legends. The pEC50 values were the negative logarithm of the EC50 values, which were obtained from the dose-response curves. For cell surface expression, data points were presented as the percentages (mean ± SEM) of the flow cytometry fluorescence signals of WT FPR1. For statistical comparison, a p-value of 0.05 or lower is considered statistically significant.

[2] = target: T2, FPR1 F291A (Homo sapiens, UniProt P21462, F291A); assay: cAMP inhibition assay, FPR1 F291A; type: cell-based; conditions: FPR1 F291A, single replicate readings
T2 construct: expressed in transfected cells; host or cells: HeLa cells, transient, pcDNA3.1(+)
T2 sequence (P21462 1-350 F291A): T1 sequence (P21462 1-350 R205A) with A205R, F291A
From the text: as §1, §2, §3

[3] = target: T3, FPR1 R84A (Homo sapiens, UniProt P21462, R84A); assay: cAMP inhibition assay, FPR1 R84A; type: cell-based; parameters: key to cAMP response, source data of Fig. 5c: % of maximal cAMP level for each construct
T3 construct: expressed in transfected cells; host or cells: HeLa cells, transient, pcDNA3.1(+)
T3 sequence (P21462 1-350 R84A): T1 sequence (P21462 1-350 R205A) with R84A, A205R
From the text: as §1, §2, §3

[4] = target: T4, FPR1 WT (Homo sapiens, UniProt P21462); assay: cAMP inhibition assay, WT FPR1; type: cell-based
T4 construct: expressed in transfected cells; host or cells: HeLa cells, transient, pcDNA3.1(+)
T4 sequence (P21462 1-350): T1 sequence (P21462 1-350 R205A) with A205R
From the text: as §1
as §2, with “China).” for “China). Different concentrations of the ligands were prepared plus a fixed dose of forskolin with the buffer above.”
(§4) The data were analyzed with Prism 6.0 (GraphPad, San Diego, CA). […] For cell surface expression, data points were presented as the percentages (mean ± SEM) of the flow cytometry fluorescence signals of WT FPR1. […]

[5] = target: T5, FPR1 R201A (Homo sapiens, UniProt P21462, R201A); assay: cAMP inhibition assay, FPR1 R201A; type: cell-based
T5 construct: expressed in transfected cells; host or cells: HeLa cells, transient, pcDNA3.1(+)
T5 sequence (P21462 1-350 R201A): T1 sequence (P21462 1-350 R205A) with R201A, A205R
From the text: as §1
as §2, with “China).” for “China). Different concentrations of the ligands were prepared plus a fixed dose of forskolin with the buffer above.”
as §4

[6] = target: T6, WT FPR1 expressed in HeLa cells (human, UniProt P21462 1-350)
T6 sequence (looked up): T1 sequence (P21462 1-350 R205A) with A205R

[7] = target: T7, FPR1 R205A (human, UniProt P21462 1-350, R205A); assay: cell-based or functional assay
T7 sequence (looked up): T1 sequence (P21462 1-350 R205A)

[8] = target: T6, WT FPR1 expressed in HeLa cells; assay: cell-based or functional assay
[9] = target: T8, FPR1 R201A (human, UniProt P21462 1-350, R201A); assay: cell-based or functional assay
T8 sequence (looked up): T1 sequence (P21462 1-350 R205A) with R201A, A205R

COc1cc(C=NNC(=O)c2ccc3c(c2)OCO3)ccc1OCc1ccccc1 [Fig. 5c]
cAMP response, source data of Fig. 5c ([1]; Log[M] -4.3): 31.8 and 48.0 and 38.0 and 26.4 and 16.2 and 78.8 | cAMP response, source data of Fig. 5c ([1]; Log[M] -5.0): 58.1 and 43.9 and 27.8 and 37.0 and 34.2 and 45.7 | cAMP response, source data of Fig. 5c ([1]; Log[M] -5.7): 35.5 and 68.3 and 63.8 and 45.2 and 48.0 and 85.4 | cAMP response, source data of Fig. 5c ([1]; Log[M] -6.4): 69.2 and 71.8 and 39.5 and 113.9 and 150.2 and 118.4 | cAMP response, source data of Fig. 5c ([1]; Log[M] -7.1): 78.9 and 109.8 and 60.3 and 84.0 and 71.2 and 109.6 | cAMP response, source data of Fig. 5c ([1]; Log[M] -7.8): 116.3 and 101.9 and 108.0 and 144.2 and 102.7 and 124.3 | cAMP response, source data of Fig. 5c ([1]; Log[M] -8.5): 91.9 and 89.9 and 58.5 and 89.3 and 105.1 and 67.8 | cAMP response, source data of Fig. 5c ([2]; Log[M] -4.3): 33.9 and 34.1 and 26.7 and 28.4 and 24.2 and 31.1 | cAMP response, source data of Fig. 5c ([2]; Log[M] -5.0): 45.9 and 38.0 and 28.1 and 39.1 and 42.3 and 29.9 | cAMP response, source data of Fig. 5c ([2]; Log[M] -5.7): 66.9 and 58.1 and 74.7 and 72.6 | cAMP response, source data of Fig. 5c ([3]; Log[M] -4.3, single replicate readings): 37.2 and 21.4 and -4.8 and 34.9 and 32.8 and 41.9 | cAMP response, source data of Fig. 5c ([3]; Log[M] -5.0, single replicate readings): 14.6 and -24.6 and 16.2 and 33.5 and 20.2 and 31.4 | cAMP response, source data of Fig. 5c ([3]; Log[M] -5.7, single replicate readings): 49.5 and 79.5 and 66.2 and 55.1 and 52.2 and 52.7 | cAMP response, source data of Fig. 5c ([3]; Log[M] -6.4, single replicate readings): 79.9 and 58.8 and 61.6 and 91.8 and 112.7 and 81.8 | cAMP response, source data of Fig. 5c ([3]; Log[M] -7.1, single replicate readings): 135.9 and 91.7 and 83.9 and 115.6 and 133.7 and 94.7 | cAMP response, source data of Fig. 5c ([3]; Log[M] -7.8, single replicate readings): 106.7 and 82.2 and 108.6 and 111.9 and 96.0 and 84.6 | cAMP response, source data of Fig. 5c ([3]; Log[M] -8.5, single replicate readings): 91.1 and 94.4 and 114.8 and 80.2 and 111.9 and 117.6

CC[C@H](C)[C@H](NC(=O)[C@H](CCSC)NC=O)C(=O)N[C@@H](Cc1ccccc1)C(=O)N[C@@H](CC(C)C)C(=O)O [fMIFL, fMet-Ile-Phe-Leu] (For-MIFL-OH)
EC50 [1]: 2.51 nM | EC50 [4]: 0.0631 nM | EC50 [5]: 6.31 nM

WKYMVm (peptide)
pEC50 of inhibition of forskolin-elevated cAMP, transfected HeLa cells [6]: 8.4

B1: fMet-Ile-Phe-Leu (fMIFL) (peptide)
peptide: For-MIFL
pEC50 of inhibition of forskolin-elevated cAMP, transfected HeLa cells [7]: 8.6 | pEC50 of inhibition of forskolin-elevated cAMP, transfected HeLa cells [8]: 10.2 | pEC50 of inhibition of forskolin-elevated cAMP, transfected HeLa cells [9]: 8.2
